The values below come from patent US20140303185A1, “NOVEL POLYMORPHS OF VILAZODONE HYDROCHLORIDE” (ORCHID CHEMICALS & PHARMACEUTICALS LIMITED, priority 2013, published 2014).

Structures can show the parent of a compound that is named as a salt.

This data set is described as follows: Storage stability of Vilazodone HCl polymorphic forms. The class given is physicochemical. As to conditions: for storage stability: at accelerated condition (tables 3 & 4).
Setting [1] is: Stability at 40 ± 2° C. & 75 ± 5% RH, Final.
[2] abbreviates: Stability at 40 ± 2° C. & 75 ± 5% RH, Final, hydrochloride.
The mark [3] stands for this setting: Stability at 40 ± 2° C. & 75 ± 5% RH, Initial, hydrochloride.
The mark [4] stands for this setting: Stability at 60 ± 2° C., Final, hydrochloride.
Where [5] appears, read: Stability at 60 ± 2° C., Initial, hydrochloride.

Consider `N#Cc1ccc2[nH]cc(CCCCN3CCN(c4ccc5oc(C(N)=O)cc5c4)CC3)c2c1` [Form A, 1-[4-(5-cyanoindol-3-yl)butyl]-4-(2-carbamoylbenzofuran-5-yl) piperazine hydrochloride], for which the storage stability entry is reported as “good storage stability”. Under setting [1], the Description result is recorded as “white to off” and the Purity came out at 99.60%. This compound also registered a Moisture content under setting [2] of 1.29%. Under setting [3], this compound displayed a Moisture content of 1.10% and a Purity of 99.65%. Further, the Description result (Stability at 60 ± 2° C., Final) was “white to off”. In addition, under setting [4], the Moisture content came out at 0.76% and the Purity is reported as 99.65%. Under setting [5], this compound displayed a Moisture content of 1.10% and a Purity of 99.65%.

Consider `N#Cc1ccc2[nH]cc(CCCCN3CCN(c4ccc5oc(C(N)=O)cc5c4)CC3)c2c1` [Form B, 1-[4-(5-cyanoindol-3-yl)butyl]-4-(2-carbamoylbenzofuran-5-yl) piperazine hydrochloride], for which the storage stability result was “good storage stability”. For the same compound, under setting [1], the Description entry was “white to off” and the Purity was 99.60%. The compound further yielded a Moisture content under setting [2] of 1.91%. Further, under setting [3], the Description entry was “white to off”, the Moisture content is recorded as 2.06% and the Purity amounted to 99.62%. Under “Stability at 60 ± 2° C., Final”, the Description result was “white to off”. Besides, under setting [4], the Moisture content was found to be 0.81% and the Purity stood at 99.60%. For the same compound, under setting [5], the Description result is on record as “white to off”, the Moisture content stood at 2.06% and the Purity came out at 99.62%.
